The record followed here is ChEMBL document CHEMBL1131242, “6beta-Acetoxynortropane: a potent muscarinic agonist with apparent selectivity toward M2-receptors” (J Med Chem, 1998).

Assay [1] concerns the target Muscarinic acetylcholine receptor M4 (Homo sapiens) (UniProt P08173). Put plainly: Inhibitory activity against [3H]-cyclic AMP accumulation in CHO transfected cells mediated by Muscarinic acetylcholine receptor M4.
The target of assay [2] is T1, Muscarinic acetylcholine receptor M4 (Homo sapiens) (UniProt P08173).
T1 sequence (whole entry): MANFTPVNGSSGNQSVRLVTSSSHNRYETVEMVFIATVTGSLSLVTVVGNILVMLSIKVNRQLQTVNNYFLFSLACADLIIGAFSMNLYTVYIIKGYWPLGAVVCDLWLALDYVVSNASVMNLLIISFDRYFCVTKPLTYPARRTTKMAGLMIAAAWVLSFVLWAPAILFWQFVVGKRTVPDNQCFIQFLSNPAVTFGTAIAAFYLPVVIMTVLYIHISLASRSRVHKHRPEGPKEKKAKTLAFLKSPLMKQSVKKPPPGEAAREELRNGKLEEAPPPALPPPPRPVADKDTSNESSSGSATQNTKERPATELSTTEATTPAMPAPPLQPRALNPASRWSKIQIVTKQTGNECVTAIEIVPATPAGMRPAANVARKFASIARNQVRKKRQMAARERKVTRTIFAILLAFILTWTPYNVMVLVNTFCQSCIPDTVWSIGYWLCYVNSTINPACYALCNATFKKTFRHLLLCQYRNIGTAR
Put plainly: Inhibition of binding of [3H]quinuclidinyl benzilate to muscarinic receptors in membranes of CHO cells transfected with Muscarinic acetylcholine receptor M4.

Assay [3] concerns the target T2, Muscarinic acetylcholine receptor M3 (Homo sapiens, UniProt P20309). Put plainly: Inhibition of binding of [3H]quinuclidinyl benzilate to human Muscarinic acetylcholine receptor M3 in membranes of transfected CHO cells at 100 uM concentration. The following applies: Membrane.
Assay [4] deals with T2, Muscarinic acetylcholine receptor M3. Put plainly: Inhibitory activity against stimulation of [3H]inositol monophosphate accumulation in [3H]inositol-labelled CHO transfected cells mediated by Muscarinic acetylcholine receptor M3.
For assay [5], the target named is Muscarinic acetylcholine receptor M4 (Homo sapiens) (UniProt P08173). The assay can be described thus: Inhibition of binding of [3H]quinuclidinyl benzilate to Muscarinic acetylcholine receptor M4 in membranes of transfected CHO cells.
For assay [6], the target named is T2, Muscarinic acetylcholine receptor M3. Put plainly: Percentage inhibition of binding of [3H]quinuclidinyl benzilate to muscarinic receptors in membranes of CHO cells transfected with Muscarinic acetylcholine receptor M3.

T2 sequence (P20309 whole entry, looked up): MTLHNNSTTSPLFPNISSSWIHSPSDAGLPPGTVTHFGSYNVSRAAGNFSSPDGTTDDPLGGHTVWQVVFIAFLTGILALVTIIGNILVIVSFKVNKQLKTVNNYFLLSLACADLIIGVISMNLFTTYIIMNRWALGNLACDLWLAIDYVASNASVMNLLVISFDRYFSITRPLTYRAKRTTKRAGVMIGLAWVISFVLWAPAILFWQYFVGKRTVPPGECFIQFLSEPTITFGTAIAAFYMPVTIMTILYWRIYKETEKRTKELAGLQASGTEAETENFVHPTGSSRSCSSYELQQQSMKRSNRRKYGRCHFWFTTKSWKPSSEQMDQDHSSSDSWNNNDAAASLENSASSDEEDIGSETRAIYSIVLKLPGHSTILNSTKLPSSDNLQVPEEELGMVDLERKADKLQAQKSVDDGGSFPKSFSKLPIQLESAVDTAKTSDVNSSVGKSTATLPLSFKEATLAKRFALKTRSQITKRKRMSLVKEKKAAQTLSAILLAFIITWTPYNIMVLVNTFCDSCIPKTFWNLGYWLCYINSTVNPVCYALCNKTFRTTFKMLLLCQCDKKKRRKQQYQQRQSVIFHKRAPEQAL

For orientation: IC50 means the midpoint of a concentration-inhibition curve. As a reminder, the Ki is a measure of affinity in units of concentration, obtained from inhibition or displacement. Low readings indicate higher affinity, high ones lower affinity. The inhibition is the share of the control response that was lost under treatment. For orientation: EC50 means the midpoint of the concentration-response curve. In turn, `C[C@@H]1O[C@H](C[N+](C)(C)C)C[C@H]1O` [MUSCARINE] had an IC50 in assay [1] of 470 nM. Moreover, the values for the Ki in assay [2] and in assay [5] were 1.4 µM and 1400 nM, respectively. Further, the inhibition in assay [3] and in assay [6] was 28% throughout. In assay [4], this molecule gave an EC50 of 130 nM.
